Literature values, collected in patent US9061052B2, “Aqueous extract of tobacco leaves, its uses in the treatment of dependence” (NFL BIOSCIENCE, priority 2006, dated 2015).

Tested on: tobacco dependence
Details: in vivo

SMILES: CC(NC(C)(C)C)C(=O)c1cccc(Cl)c1 (stereo not shown) [Zyban, bupropion]
- Adverse effects: dry mouth sensation, insomnia and dizziness
